Key:
human 11β-HSD1 = molecular target: T1, human 11β-HSD1 (Homo sapiens, UniProt P28845); test: Enzyme activity analysis on human 11β-HSD1 (HTRF cortisol, liver microsomes); type: biochemical; conditions: first value of cell
T1 construct: 100 ug/ml human/mouse liver microsomes; from tissue; host or cells: human liver microsomes
In short: (§1)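 Cortisol generated by mouse or human liver microsome 11β-HSD1 during 2 h at 37° C., measured by HTRF competition (cryptate anti-cortisol antibody, d2-cortisol, 2 h room temperature) against a cortisol standard curve. IC50 from percent inhibition versus no-compound control.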

mouse 11β-HSD1 = molecular target: T2, mouse 11β-HSD1 (Mus musculus, UniProt P50172); test: Enzyme activity analysis on mouse 11β-HSD1 (HTRF cortisol, liver microsomes); type: biochemical; conditions: second value of cell
T2 construct: 100 ug/ml human/mouse liver microsomes; from tissue; host or cells: mouse liver microsomes
In short: as §1

T1 sequence (P28845 whole entry): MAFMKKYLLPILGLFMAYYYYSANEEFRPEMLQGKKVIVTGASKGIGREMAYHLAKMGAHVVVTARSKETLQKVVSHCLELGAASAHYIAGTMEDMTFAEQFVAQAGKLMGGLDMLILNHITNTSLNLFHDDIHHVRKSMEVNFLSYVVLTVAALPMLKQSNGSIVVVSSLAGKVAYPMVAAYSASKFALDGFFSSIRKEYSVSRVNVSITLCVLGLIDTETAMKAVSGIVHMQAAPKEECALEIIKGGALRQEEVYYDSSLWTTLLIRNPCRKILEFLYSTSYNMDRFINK
T2 sequence (P50172 whole entry): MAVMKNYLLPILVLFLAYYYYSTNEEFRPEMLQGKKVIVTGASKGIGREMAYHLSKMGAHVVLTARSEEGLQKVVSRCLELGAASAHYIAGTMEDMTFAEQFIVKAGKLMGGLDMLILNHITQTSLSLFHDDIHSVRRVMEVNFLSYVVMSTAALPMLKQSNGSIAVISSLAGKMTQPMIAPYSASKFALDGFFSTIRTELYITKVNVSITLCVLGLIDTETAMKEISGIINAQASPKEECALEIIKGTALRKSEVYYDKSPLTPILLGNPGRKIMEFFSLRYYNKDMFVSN

SMILES	IC50 (human 11β-HSD1)	IC50 (mouse 11β-HSD1)
O=C(NC1C2CC3CC(C2)CC1C3)C1(NS(=O)(=O)c2ccc([N+](=O)[O-])cc2)CCC1 (centres unmarked) [compound 143, N-(adamantane-2-yl)-1-(4-nitrophenylsulfonamido)cyclobutanecarboxyamide]	> 2.5 µM	> 2.5 µM
NC(=O)C12CC3CC(C1)C(NC(=O)C1(NS(=O)(=O)c4cc(Cl)c(Cl)cc4Cl)CCC1)C(C3)C2 (centres unmarked) [compound 161, N-4-(1-(2,4,5-trichlorophenylsulfonamido)cyclobutanecarboxyamido)adamantane-1-carboxyamide]	0.052 µM	0.428 µM
CC(C)(NS(=O)(=O)c1ccc(F)c(F)c1F)C(=O)NC1C2CC3CC1CC(C(N)=O)(C3)C2 (centres unmarked) [compound 116, N-4-(2-(2,3,4-trifluorophenylsulfonamido)-2-methylpropanamido)adamantane-1-carboxy amide]	0.035 µM	0.122 µM
CC(C)(NS(=O)(=O)c1c(F)cccc1F)C(=O)NC1C2CC3CC1CC(O)(C3)C2 (centres unmarked) [compound 74, N-(5-hydroxyadamantane-2-yl)-2-methyl-2-(2,6-difluorophenylsulfonamido)propanamide]	0.079 µM	0.305 µM
CC(C)(NS(=O)(=O)Cc1ccccc1Cl)C(=O)NC1C2CC3CC(C2)CC1C3 (centres unmarked) [compound 34, N-(adamantane-2-yl)-2-methyl-2-((2-chlorophenyl)methylsulfonamido)propanamide]	0.048 µM	0.7 µM
CC(C)(NS(=O)(=O)c1ccc(F)cc1F)C(=O)NC1C2CC3CC(C2)CC1C3 (centres unmarked) [compound 58, N-(adamantane-2-yl)-2-methyl-2-(2,4-difluorophenylsulfonamido)propanamide]	0.199 µM	0.621 µM
NC(=O)C12CC3CC(C1)C(NC(=O)C1(NS(=O)(=O)c4ccc(Cl)cc4Cl)CCC1)C(C3)C2 (centres unmarked) [compound 153, N-4-(1-(2,4-dichlorophenylsulfonamido)cyclobutanecarboxyamido)adamantane-1-carboxyamide]	0.058 µM	0.459 µM
Cc1c(Cl)cccc1S(=O)(=O)NC1(C(=O)NC2C3CC4CC2CC(C(N)=O)(C4)C3)CCCCC1 (centres unmarked) [compound 180, N-4-(1-(3-chloro-2-methylphenylsulfonamido)cyclohexanecarboxyamido)adamantane-1-carboxyamide]	0.023 µM	0.328 µM
CC(C)(NS(=O)(=O)c1cccc(F)c1)C(=O)NC1C2CC3CC(C2)CC1C3 (centres unmarked) [compound 30, N-(adamantane-2-yl)-2-methyl-2-(3-fluorophenylsulfonamido)propanamide]	0.192 µM	0.462 µM
CCc1ccc(S(=O)(=O)NC(C)(C)C(=O)NC2C3CC4CC(C3)CC2C4)cc1 (centres unmarked) [compound 53, N-(adamantane-2-yl)-2-methyl-2-(4-ethylphenylsulfonamido)propanamide]	0.21 µM	0.673 µM
NC(=O)C12CC3CC(C1)C(NC(=O)C1(NS(=O)(=O)c4ccccc4Br)CCCCC1)C(C3)C2 (centres unmarked) [compound 178, N-4-(1-(2-bromophenylsulfonamido)cyclohexanecarboxyamido)adamantane-1-carboxyamide]	0.009 µM	0.048 µM
COc1ccccc1S(=O)(=O)NC(C)(C)C(=O)NC1C2CC3CC1CC(C(N)=O)(C3)C2 (centres unmarked) [compound 226, 4-[2-(2-methoxy-benzenesulfonylamino)-2-methyl-propionylamino]-adamantane-1-carboxylic acid amide]	0.062 µM	0.038 µM
Cc1ccccc1S(=O)(=O)N(C)C(C)(C)C(=O)NC1C2CC3CC1CC(C(N)=O)(C3)C2 (centres unmarked) [compound 196]	0.003 µM	0.005 µM
CC(C)(NS(=O)(=O)c1ccc(Cl)c([N+](=O)[O-])c1)C(=O)NC1C2CC3CC(C2)CC1C3 (centres unmarked) [compound 61, N-(adamantane-2-yl)-2-methyl-2-(4-chloro-3-nitrophenylsulfonamido)propanamide]	> 2.5 µM	> 2.5 µM
Cc1ccc(S(=O)(=O)NC(C)(C)C(=O)NC2C3CC4CC2CC(C(N)=O)(C4)C3)cc1Cl (centres unmarked) [compound 103, N-4-(2-(3-chloro-4-methylphenylsulfonamido)-2-methylpropanamido)adamantane-1-carboxyamide]	0.026 µM	0.037 µM
CC(C)(NS(=O)(=O)c1cccc([N+](=O)[O-])c1)C(=O)NC1C2CC3CC(C2)CC1C3 (centres unmarked) [compound 66, N-(adamantane-2-yl)-2-methyl-2-(3-nitrophenylsulfonamido)propanamide]	0.511 µM	0.914 µM
CC(C)(NS(=O)(=O)c1ccc(Cl)cc1[N+](=O)[O-])C(=O)NC1C2CC3CC1CC(O)(C3)C2 (centres unmarked) [compound 79, N-(5-hydroxyadamantane-2-yl)-2-methyl-2-(4-chloro-2-nitrophenylsulfonamido)propanamide]	0.083 µM	0.797 µM

SMILES	IC50 (human 11β-HSD1)	IC50 (mouse 11β-HSD1)
CN(C(C)(C)C(=O)NC1C2CC3CC1CC(C(N)=O)(C3)C2)S(=O)(=O)c1ccccc1N (centres unmarked) [compound 223, N-4-(2-(2-amino-N-methylphenylsulfonamido)-2-methylpropanamido)adamantane-1-carboxyamide]	0.011 µM	0.023 µM
COc1cccc(F)c1S(=O)(=O)N(C)C(C)(C)C(=O)NC1C2CC3CC1CC(C(N)=O)(C3)C2 (centres unmarked) [compound 194, N-4-(2-(2-methoxy-6-fluoro-N-methylphenylsulfonamido)-2-methylpropanamido)adamantane-1-carboxyamide]	0.012 µM	0.006 µM
COc1ccc(S(=O)(=O)NC2(C(=O)NC3C4CC5CC3CC(C(N)=O)(C5)C4)CCC2)cc1F (centres unmarked) [compound 154, N-4-(1-(3-fluoro-4-methoxyphenylsulfonamido)cyclobutanecarboxyamido)adamantane-1-carboxyamide]	1.63 µM	0.565 µM
CC(C)(NS(=O)(=O)c1cc(C(F)(F)F)ccc1C(F)(F)F)C(=O)NC1C2CC3CC1CC(C(N)=O)(C3)C2 (centres unmarked) [compound 109, N-4-(2-(2,5-bistrifluoromethylphenylsulfonamido)-2-methylpropanamido)adamantane-1-carboxyamide]	0.045 µM	1.24 µM
NC(=O)C12CC3CC(C1)C(NC(=O)C1(NS(=O)(=O)c4ccccc4[N+](=O)[O-])CCC1)C(C3)C2 (centres unmarked) [compound 145, N-4-(1-(2-nitrophenylsulfonamido)cyclobutanecarboxyamido)adamantane-1-carboxyamide]	0.08 µM	0.509 µM
CN(C(C)(C)C(=O)NC1C2CC3CC1CC(O)(C3)C2)S(=O)(=O)c1ccccc1[N+](=O)[O-] (centres unmarked) [compound 205, N-(5-hydroxyadamantane-2-yl)-2-(2-nitro-N-methylphenylsulfonamido)-2-methylpropan amide]	0.005 µM	0.068 µM
Cc1cc(C)cc(S(=O)(=O)NC(C)(C)C(=O)NC2C3CC4CC(C3)CC2C4)c1 (centres unmarked) [compound 59, N-(adamantane-2-yl)-2-methyl-2-(3,5-dimethylphenylsulfonamido)propanamide]	0.331 µM	1.21 µM
Cc1ccc(S(=O)(=O)NC(C)(C)C(=O)NC2C3CC4CC(C3)CC2C4)cc1F (centres unmarked) [compound 27, N-(adamantane-2-yl)-2-methyl-2-(4-methyl-3-fluorophenylsulfonamido)propanamide]	0.555 µM	1.12 µM
CC(C)(NS(=O)(=O)c1ccc(F)c(Cl)c1)C(=O)NC1C2CC3CC(C2)CC1C3 (centres unmarked) [compound 54, N-(adamantane-2-yl)-2-methyl-2-(4-fluoro-3-chlorophenylsulfonamido)propanamide]	0.223 µM	0.904 µM
Cc1ccc(S(=O)(=O)NC(C)(C)C(=O)NC2C3CC4CC2CC(C(N)=O)(C4)C3)cc1[N+](=O)[O-] (centres unmarked) [compound 114, N-4-(2-(3-nitro-4-methylphenylsulfonamido)-2-methylpropanamido)adamantane-1-carboxyamide]	0.093 µM	0.207 µM
CCCN(C(C)(C)C(=O)NC1C2CC3CC1CC(C(N)=O)(C3)C2)S(=O)(=O)c1ccccc1C(F)(F)F (centres unmarked) [compound 218, N-4-(2-(2-trifluoromethyl-N-propylphenylsulfonamido)-2-methylpropanamido)adamantane-1-carboxyamide]	0.053 µM	0.462 µM
NC(=O)C12CC3CC(C1)C(NC(=O)C1(NS(=O)(=O)c4ccccc4Cl)CCC1)C(C3)C2 (centres unmarked) [compound 152, N-4-(1-(2-chlorophenylsulfonamido)cyclobutanecarboxyamido)adamantane-1-carboxyamide]	0.021 µM	0.099 µM
COc1ccc(S(=O)(=O)NC(C)(C)C(=O)NC2C3CC4CC2CC(C(N)=O)(C4)C3)c(OC)c1 (centres unmarked) [compound 129]	0.096 µM	0.589 µM
NC(=O)C12CC3CC(C1)C(NC(=O)C1(NS(=O)(=O)c4cc(F)ccc4F)CCC1)C(C3)C2 (centres unmarked) [compound 163, N-4-(1-(2,5-difluorophenylsulfonamido)cyclobutanecarboxyamido)adamantane-1-carboxyamide]	0.373 µM	0.443 µM
NC(=O)C12CC3CC(C1)C(NC(=O)C1(NS(=O)(=O)c4ccccc4Br)CCCC1)C(C3)C2 (centres unmarked) [compound 174, N-4-(1-(2-bromophenylsulfonamido)cyclopentanecarboxyamido)adamantane-1-carboxyamide]	0.017 µM	0.015 µM
NC(=O)C12CC3CC(C1)C(NC(=O)C1(NS(=O)(=O)c4cccc5cccnc45)CC1)C(C3)C2 (centres unmarked) [compound 135, N-4-(1-(quinoline-8-sulfonamido)cyclopropanecarboxyamido)adamantane-1-carboxyamide]	0.042 µM	0.02 µM
CCCc1ccc(S(=O)(=O)NC(C)(C)C(=O)NC2C3CC4CC2CC(C(N)=O)(C4)C3)cc1 (centres unmarked) [compound 99, N-4-(2-(4-propylphenylsulfonamido)-2-methylpropanamido)adamantane-1-carboxyamide]	0.047 µM	0.124 µM

— patent publication US9073830B2 (Hyundai Pharm Co., Ltd., priority 2011, dated 2015)
